Measured values taken from US20100112042A1, “Processes and Compositions for Liposomal and Efficient Delivery of Gene Silencing Therapeutics” (MDRNA, INC., priority 2008, published 2010).
Each block holds one sequence with its values, some of them ahead of it. Where no end group is shown, it is not given here.

Legend:
dsRNA = assay: SYBR-GOLD Dye Binding Assay (peptide binding to RNAi-inducing agent); conditions: FIG. 6; dsRNA 10 μg/ml, 10 mM hepes/5% dextrose pH 7.4
Method: The relative strength of the binding of a cationic peptide to an RNAi-inducing agent was measured with a dye binding assay.
The RNAi-inducing agent was prepared at 7.8 μl in 10 ml to make a 20 μg/ml stock, then 75 μl/well. A SYBR gold dilution was prepared at 3.75 μl in 15 ml for 1:4000 dilution for a 2.5× stock.
Peptides were dissolved in Hepes buffer with 5% dextrose and diluted. Peptides were further diluted so that 75 μl could be added to each well resulting in the desired N:P (ranging from 0-4). Peptides were assumed to have a purity of 50%, but actual peptide amount was unknown.
A SYBR-GOLD Dye Binding Assay was performed. A 96-well plate assay with sample volume of 150 μl per well. Final dsRNA concentration was 10 μg/ml in 10 mM hepes/5% dextrose at pH 7.4. Peptides were diluted into different working solutions such that equal volumes were added to reach different N/P ratios. For the addition procedure, dsRNA was first added (75 μl of 20 μg/ml), followed by […] of 2.5×SYBR Gold. Peptide ([…]) was then added to compete off the SYBR dye. Total volume was […]. Fluorescence was corrected from background of dye alone in buffer. SYBR-Gold ex/em was 495 nm/537 nm, read on Molecular Devices plate reader.

Cyclophilin B (PPIB) = assay: In vitro assay for PPIB gene expression knockdown in A549 cells; type: cell-based, human; conditions: for Knockdown (%) (vs dsRNA control): A549 cells, dsRNA DC4377 100 nM; for Knockdown (%) vs control / Knockdown (%) vs untransf: dsRNA DX4221 100 nM
Method: Cyclophilin B (PPIB) gene knockdown measurements can be used as a primary activity-based in vitro assay for interfering RNA delivery formulations. Typically, the measurements were made as described below, with minor variations.
Cyclophilin B (PPIB) gene expression knockdown was measured in A549 human alveolar basal epithelial cells. For PPIB gene knockdown measurements, A549 cells were transfected with an interfering RNA formulation, total RNA prepared 24 hours after transfection, and PPIB mRNA assayed by RT-PCR. QRT-PCR of 36B4 (acidic ribosomal phosphoprotein PO) mRNA expression was performed for normalization.
A549 cells were seeded at 7,500 cells/well (96-well) and incubated overnight in medium. Confluency was about 50% at the time of transfection. Transfection complex was prepared by adding an interfering RNA to medium (OptiMEM™) and vortexing, separately adding a delivery formulation to medium (OptiMEM™) and vortexing, and finally mixing the interfering RNA in medium with the delivery formulation in medium and incubating 20 minutes at room temperature to make the transfection complex. The medium for incubated cells was replaced with fresh OptiMEM™ and transfection complex was added to each well. Cells were incubated for 5 hrs at 37° C. and 5% CO2, then complete medium was added (to a final fetal bovine serum concentration 10%) and incubation continued until 24 hours post-transfection.
For PPIB gene knockdown cells were lysed and RNA prepared (Invisorb RNA Cell HTS 96-Kit/C, Invitek, Berlin, or RNeasy 96 Kit, Qiagen). Quantitative RT-PCR was performed using One-Step qRT-PCR kit (Invitrogen) on a DNA Engine Opticon2 thermal cycler (BioRad).
Primers used for PPIB were: […]

[1] = endosomolytic agent PN3033, binary N/P 5, final N/P 2.5
[2] = endosomolytic agent none, binary N/P 5
[3] = endosomolytic agent PN3033, binary N/P 4, final N/P 2.5
[4] = endosomolytic agent PN3033, binary N/P 4, final N/P 3.5
[5] = endosomolytic agent PN3033, binary N/P 5, final N/P 3.5
[6] = endosomolytic agent PN3033, binary N/P 5, final N/P 4.5

binding to dsRNA (ability to displace SYBR-Gold dye) (dsRNA): strongest binding
Sequence: RRRRRCCRRRRR (cysteine pairing not given here; also: dimer) [PN3499, dimer peptide containing a total of 10 arginines]

Sequence: WWHHKKRRCCRRKKHHWW [PN4110, triggered release peptide]
Knockdown (%) (vs dsRNA control) (Cyclophilin B (PPIB); [1]): 65%
Knockdown (%) (vs dsRNA control) (Cyclophilin B (PPIB); endosomolytic agent PN3033, binary N/P 10, final N/P 5): 63%
Knockdown (%) (vs dsRNA control) (Cyclophilin B (PPIB); [2]): 0%
Knockdown (%) vs control (Cyclophilin B (PPIB); [3]): 50%
Knockdown (%) vs untransf (Cyclophilin B (PPIB); [3]): 55%
Knockdown (%) vs control (Cyclophilin B (PPIB); [4]): 41%
Knockdown (%) vs untransf (Cyclophilin B (PPIB); [4]): 36%
Knockdown (%) vs control (Cyclophilin B (PPIB); [1]): 72%
Knockdown (%) vs untransf (Cyclophilin B (PPIB); [1]): 70%
Knockdown (%) vs control (Cyclophilin B (PPIB); [5]): 74%
Knockdown (%) vs untransf (Cyclophilin B (PPIB); [5]): 72%
Knockdown (%) vs control (Cyclophilin B (PPIB); [6]): 36%
Knockdown (%) vs untransf (Cyclophilin B (PPIB); [6]): 40%
Knockdown (%) vs control (Cyclophilin B (PPIB); [2]): 14%
Knockdown (%) vs untransf (Cyclophilin B (PPIB); [2]): 11%
